Structures are written as SMILES. Several values for one entry are separate records, joined by “and”; a condition that tells them apart may be missing. Identical values can stand only once. Counter-ions that a name gives are not always drawn.

Common to all, as to format: physicochemical
Series [1] in a line: Bulk density, tapped density and Carr index. To be noted: for Bulk density / Tapped density: monohydrochloride.
Series [2] can be described thus: Particle size distribution (d10, d50, d90) by laser diffraction. The source says: FIG. 6 illustrates particle size distribution of the material of Example 6C (Batch HQ00003) spray dried with two-feed nozzle as obtained by laser diffraction A bimodal particle size distribution is obvious. FIG. 9 illustrates particle size distribution of spray dried material with rotary wheel nozzle, i.e. of the material of batch BS1506SA03 of Example 13 (Table 20) obtained using a Malvern Mastersizer 2000 equipped with Hydro 2000S wet sample dispersion unit (Malvern Instruments Ltd, Malvern/UK). A monomodal particle size distribution is obvious. The terms “d50 value” (sometimes also referred to as “d(0.5)-value”) and “mass-median diameter” (or MMD) can be used interchangeably and denote the average particle size by mass, i.e. the average equivalent diameter of a particle, which is defined as the diameter where 50% (w) of the particles of the ensemble have a larger equivalent spherical diameter, and the other 50% (w) have a smaller equivalent spherical diameter. In analogy, the term “d10-value” denotes the particle diameter wherein 10% (w) of the particles of the ensemble have a smaller equivalent spherical diameter. In analogy, the term “d90-value” denotes the particle diameter wherein 90% (w) of the particles of the ensemble have a smaller equivalent spherical diameter.

Series [3] in a line: Solid state by X-ray powder diffraction. To be noted: * indicates absence of crystalline API; for Solid state / Polymorphy (X-Ray, XRPD): monohydrochloride. The text has this:
Bragg's law describes the diffraction of crystalline material with the equation “2d·sin(theta)=n·lambda”, wherein “d” denotes perpendicular distance (in Angstroms) between pairs of adjacent planes in a crystal (“d-spacing”), “theta” denotes the Bragg angle, “lambda” denotes the wavelength and “n” is an integer. When Bragg's law is fulfilled, the reflected beams are in phase and interfere constructively so that Bragg diffraction peaks are observed in the X-ray diffraction pattern. At angles of incidence other than the Bragg angle, reflected beams are out of phase and destructive interference or cancellation occurs. […] The XRPD pattern of an amorphous material is further characterized by one or more amorphous halos.
The term “XRPD” denotes the analytical method of X-Ray Powder Diffraction. The repeatability of the angular values is in the range of 2Theta±0.2°, more particularly in the range of 2Theta±0.1°. The term “approximately” given in combination with an angular value denotes the variance which is in the range of 2Theta±0.2°, particularly in the range of 2Theta±0.1°. The relative XRPD peak intensity is dependent upon many factors such as structure factor, temperature factor, crystallinity, polarization factor, multiplicity, and Lorentz factor. Relative intensities may vary considerably from one measurement to another due to preferred orientation effects. According to USP 941 (US Pharmacopoeia, 37th Edition, General Chapter 941), relative intensities between two samples of the same material may vary considerably due to “preferred orientation” effects. Anisotropic materials adopting preferred orientation will lead to anisotropic distribution of properties such as modulus, strength, ductility, toughness, electrical conductivity, thermal expansion, etc., as described e.g. in Kocks U. F. et al. (Texture and Anisotropy: Preferred Orientations in Polycrystals and Their Effect on Materials Properties, Cambridge University Press, 2000). In XRPD but also Raman spectroscopy, preferred orientations cause a change in the intensity distribution. Preferred orientation effects are particularly pronounced with crystalline APIs of relatively large particle size.

Series [4] is described as follows: Shear cell testing with Ring Shear Tester RST-XS. The source says:
Similar to the classification used by Jenike (Dietmar Schulze, Pulver und Schüttgüter, 2009 Springer Verlag Berlin/DE), one can define flow behaviour based on the flow function constant (ffc) as follows:
The larger the flow function constant ffc, i.e., the smaller the ratio of the unconfined yield strength (σc) to the consolidation stress (σ1), the better a bulk solid's flow.

Setting [5] is: spray-dried amorphous ipatasertib monohydrochloride, rotary wheel atomizer.
The mark [6] stands for this setting: Pre-shear stress 1000 PA, 30 mL shear cell, monohydrochloride.
Where [7] appears, read: spray dried amorphous ipatasertib monohydrochloride powder.

`CC(C)NC[C@@H](C(=O)N1CCN(c2ncnc3c2[C@H](C)C[C@H]3O)CC1)c1ccc(Cl)cc1` [BS1506SA01, ipatasertib monohydrochloride]: in series [1] (setting [5]), the Bulk density came to 0.41 gcm^−3 and the Tapped density is listed as 0.57 gcm^−3. Moreover, in series [2] (setting [5]), the “Particle size d10” value is 11 μm, the “Particle size d50” value is given as 31 μm and the “Particle size d90” value came out at 64 μm. For the same compound, the “Polymorphy (X-Ray)” value in series [3] is reported as “amorphous*”. Also, in series [4] (setting [6]), the “Consolidation stress (σ1)” value is reported as 1725 PA and the “Flow Function Constant (ffc)” value worked out at 4.0.
Take `CC(C)NC[C@@H](C(=O)N1CCN(c2ncnc3c2[C@H](C)C[C@H]3O)CC1)c1ccc(Cl)cc1` [BS1506SA02, ipatasertib monohydrochloride]: in series [1] (setting [5]), the Bulk density was 0.40 gcm^−3 and the Tapped density is on record as 0.52 gcm^−3. Moreover, in series [2] (setting [5]), the “Particle size d10” value worked out at 11 μm, the “Particle size d50” value was determined as 31 μm and the “Particle size d90” value was determined as 64 μm. Also, the “Polymorphy (X-Ray)” value in series [3] is “amorphous*”. Moreover, in series [4] (setting [6]), the “Consolidation stress (σ1)” value is recorded as 1701 PA and the “Flow Function Constant (ffc)” value is 3.5.
Consider `CC(C)NC[C@@H](C(=O)N1CCN(c2ncnc3c2[C@H](C)C[C@H]3O)CC1)c1ccc(Cl)cc1` [BS1506SA03, ipatasertib monohydrochloride], for which, in series [1] (setting [5]), the Bulk density came to 0.39 gcm^−3 and the Tapped density is listed as 0.55 gcm^−3. The “particle size distribution shape” value in series [2] (laser diffraction, monohydrochloride) is given as “monomodal”. Moreover, in series [2] (setting [5]), the “Particle size d10” value stood at 12 μm, the “Particle size d50” value stood at 31 μm and the “Particle size d90” value turned out to be 62 μm. For the same compound, the “Polymorphy (X-Ray)” value in series [3] is on record as “amorphous*”. Moreover, in series [4] (setting [6]), the “Consolidation stress (σ1)” value was 1709 PA and the “Flow Function Constant (ffc)” value is 2.9.
Turning to `CC(C)NC[C@@H](C(=O)N1CCN(c2ncnc3c2[C@H](C)C[C@H]3O)CC1)c1ccc(Cl)cc1` [Composition 140210412, ipatasertib monohydrochloride], in series [1] (setting [7]), the Bulk density was 0.47 gcm^−3 and the Tapped density stood at 0.60 gcm^−3. For the same compound, in series [2] (setting [7]), the “Particle size d10” value worked out at 13 μm, the “Particle size d50” value came to 46 μm and the “Particle size d90” value is on record as 94 μm. In addition, the “Solid state / Polymorphy (X-Ray, XRPD)” value in series [3] is on record as “amorphous*”.
Take `CC(C)NC[C@@H](C(=O)N1CCN(c2ncnc3c2[C@H](C)C[C@H]3O)CC1)c1ccc(Cl)cc1` [Composition 140210413, ipatasertib monohydrochloride]: in series [1] (setting [7]), the Bulk density was 0.45 gcm^−3 and the Tapped density is recorded as 0.59 gcm^−3. In series [2] (setting [7]), the “Particle size d10” value was found to be 10 μm, the “Particle size d50” value is 28 μm and the “Particle size d90” value is 56 μm. Moreover, in series [3], the “Solid state / Polymorphy (X-Ray, XRPD)” value was “amorphous*”.
Take `CC(C)NC[C@@H](C(=O)N1CCN(c2ncnc3c2[C@H](C)C[C@H]3O)CC1)c1ccc(Cl)cc1` [Composition 140210414, ipatasertib monohydrochloride]: in series [1] (setting [7]), the Bulk density was determined as 0.48 gcm^−3 and the Tapped density is given as 0.57 gcm^−3. Besides, in series [2] (setting [7]), the “Particle size d10” value is given as 18 μm, the “Particle size d50” value was 53 μm and the “Particle size d90” value amounted to 109 μm. Further, the “Solid state / Polymorphy (X-Ray, XRPD)” value in series [3] is “amorphous*”.
In series [1] (setting [7]), `CC(C)NC[C@@H](C(=O)N1CCN(c2ncnc3c2[C@H](C)C[C@H]3O)CC1)c1ccc(Cl)cc1` [Composition 141210421, ipatasertib monohydrochloride] displayed a Bulk density of 0.38 gcm^−3 and a Tapped density of 0.55 gcm^−3. In addition, in series [2] (setting [7]), the “Particle size d10” value is given as 10 μm, the “Particle size d50” value is 28 μm and the “Particle size d90” value is listed as 56 μm. The “Solid state / Polymorphy (X-Ray, XRPD)” value in series [3] is given as “amorph.*”.
On to `CC(C)NC[C@@H](C(=O)N1CCN(c2ncnc3c2[C@H](C)C[C@H]3O)CC1)c1ccc(Cl)cc1` [Composition 141210422, ipatasertib monohydrochloride], for which, in series [1] (setting [7]), the Bulk density is on record as 0.37 gcm^−3 and the Tapped density is listed as 0.54 gcm^−3. In addition, in series [2] (setting [7]), the “Particle size d10” value is reported as 9.6 μm, the “Particle size d50” value came to 27 μm and the “Particle size d90” value came out at 54 μm. The “Solid state / Polymorphy (X-Ray, XRPD)” value in series [3] is “amorph.*”.
In series [1] (setting [7]), `CC(C)NC[C@@H](C(=O)N1CCN(c2ncnc3c2[C@H](C)C[C@H]3O)CC1)c1ccc(Cl)cc1` [Composition 141210423, ipatasertib monohydrochloride] gave a Bulk density of 0.39 gcm^−3 and a Tapped density of 0.55 gcm^−3. For the same compound, in series [2] (setting [7]), the “Particle size d10” value was 10 μm, the “Particle size d50” value is listed as 28 μm and the “Particle size d90” value came to 56 μm. Also, in series [3], the “Solid state / Polymorphy (X-Ray, XRPD)” value is “amorph.*”.
In series [1] (setting [7]), `CC(C)NC[C@@H](C(=O)N1CCN(c2ncnc3c2[C@H](C)C[C@H]3O)CC1)c1ccc(Cl)cc1` [Composition 141210424, ipatasertib monohydrochloride] yielded a Bulk density of 0.37 gcm^−3 and a Tapped density of 0.54 gcm^−3. Besides, in series [2] (setting [7]), the “Particle size d10” value is recorded as 9.5 μm, the “Particle size d50” value is given as 27 μm and the “Particle size d90” value is on record as 54 μm. The “Solid state / Polymorphy (X-Ray, XRPD)” value in series [3] is listed as “amorph.*”.
`CC(C)NC[C@@H](C(=O)N1CCN(c2ncnc3c2[C@H](C)C[C@H]3O)CC1)c1ccc(Cl)cc1` [Composition 141210425, ipatasertib monohydrochloride]: in series [1] (setting [7]), the Bulk density came out at 0.39 gcm^−3 and the Tapped density is 0.54 gcm^−3. In series [2] (setting [7]), the “Particle size d10” value is recorded as 11 μm, the “Particle size d50” value is on record as 39 μm and the “Particle size d90” value was 80 μm. In addition, the “Solid state / Polymorphy (X-Ray, XRPD)” value in series [3] is reported as “amorph.*”.
`CC(C)NC[C@@H](C(=O)N1CCN(c2ncnc3c2[C@H](C)C[C@H]3O)CC1)c1ccc(Cl)cc1` [Composition 141210426, ipatasertib monohydrochloride]: in series [1] (setting [7]), the Bulk density worked out at 0.24 gcm^−3 and the Tapped density was 0.37 gcm^−3. In series [2] (setting [7]), the “Particle size d10” value worked out at 8.5 μm, the “Particle size d50” value is listed as 21 μm and the “Particle size d90” value was found to be 43 μm. In series [3], the “Solid state / Polymorphy (X-Ray, XRPD)” value is “amorph.*”.
Regarding `CC(C)NC[C@@H](C(=O)N1CCN(c2ncnc3c2[C@H](C)C[C@H]3O)CC1)c1ccc(Cl)cc1` [Example 6C′, ipatasertib monohydrochloride], in series [1] (setting [7]), the “Carr Index” value was 38%; the Bulk density was 0.262 gcm^−3 and 0.26 gcm^−3; the Tapped density is 0.423 gcm^−3 and 0.42 gcm^−3. Moreover, in series [2] (setting [7]), the “Particle size d10” value is reported as 0.8 μm, the “Particle size d50” value is 3.0 μm and the “Particle size d90” value worked out at 5.7 μm. Also, in series [4] (Pre-shear stress 1000 PA), the “Consolidation stress (σ1)” value was 2118 PA, the “Flow Function Constant (ffc)” value came out at 1.08 and the tc is 514 Pa. Further, in series [4] (Pre-shear stress 2000 PA), the “Consolidation stress (σ1)” value was determined as 4844 PA, the “Flow Function Constant (ffc)” value was 1.09 and the tc is 1095 Pa. In addition, in series [4] (Pre-shear stress 4000 PA), the “Consolidation stress (σ1)” value was 9557 PA, the “Flow Function Constant (ffc)” value was found to be 1.12 and the tc is listed as 2041 Pa. For the same compound, the ffc entry in series [4] (across all pre-shear stresses) was “around 1.1”. In series [4] (shear cell testing), the flowability result is listed as “very poor flowability”.
